Data set [1] has as its target T1, mTOR kinase (Homo sapiens, UniProt P42345).
T1 construct: purchased Thermo Fisher PV4753
The experiment in a line: In vitro inhibitory activity on mTOR kinase (TR-FRET, GFP-4E-BP1 substrate). Particulars: for IC50: 0.5 μg/mL mTOR, 0.4 μM GFP-4E-BP1, 3 μM ATP. The format is biochemical. The protocol:
Preparation of Reaction Buffers:
Basic buffer composition: 50 mM (mmol/L) HEPES (pH 7.5), 1 mM EGTA, 0.01% Tween-20, 10 mM MnCl2, 2 mM DTT (diluted from 500 mM before used).
(2) mTOR kinase buffer solution: 1650 μL of 2.5×mTOR kinase buffer solution was composed of 1640.2 μL of 1× basic buffer and 9.8 μL of mTOR (0.21 mg/mL stock solution), and the final concentration was 0.5 μg/mL.
(3) Detection buffer solution: 3960 μL of 2× detection buffer solution was composed of 3797.1 μL of TR-FRET buffer diluent (purchased from Thermo Fisher, catalog number: PV3574), 4.5 μL of Tb-anti-p4E-BP1 antibody (3.49 μM stock solution, purchased from Thermo Fisher, catalog number: PV4757) and 158 μL of EDTA (500 mM stock solution), and the final concentrations were 2 nM Tb-anti-p4E-BP1 antibody and 10 mM EDTA.
(1) 20 μL of 100% DMSO solution containing 5 mM compound to be tested was added to a 96-well plate.
(2) The compound was serially diluted 3 times in DMSO.
(3) 1 μL of the compound in the previous step was taken, diluted with 19 μL of mTOR kinase buffer, and transferred to another 96-well plate.
(4) 4 μL of mTOR kinase solution (purchased from Thermo Fisher, catalog number: PV4753) was added to a 384-well plate.
(5) 2 μL of the compound in G was taken out and added to the 384-well plate with mTOR kinase, and incubated at room temperature for 15 minutes.
(6) 4 μL of substrate solution was added to initiate the reaction.
The final concentrations of mTOR reaction solution were: 0.5 μg/mL mTOR, 0.4 μM GFP-4E-BP1, 3 μM ATP.
The final concentration of the DMSO solution was 1%.
(7) Incubation was performed for 60 minutes at room temperature.
(8) 10 μL of detection buffer was added. The final concentrations were 2 nM Tb-anti-p4E-BP1 antibody and 10 mM EDTA.
(9) Incubation was performed for 30 minutes at room temperature.
(10) TR-FRET value was read on MD5 multi-mode plate reader (Molecular Devices). The excitation wavelength was 340 nm, the emission wavelength 1 was 495 nm, and the emission wavelength 2 was 520 nm. The ratio of 520 nm/495 nm readings was calculated as TR-FRET value.
IC50 of compound was fitted by nonlinear regression equation:
Y=Bottom+(Top-Bottom)/(1+10^((LogIC50-X)*HillSlope));
X: common logarithm value of compound concentration; Y: TR-FRET value (520 nm/495 nm).
(In general: TR-FRET usually uses a lanthanide donor and a delayed reading to cut background.)

In data set [2] the test system is RD cells. The experiment in a line: Detection of cytotoxicity in RD cells (CellTiter-Glo). Type of data set: cell-based. As to conditions: 4 days, CellTiter-Glo, median toxic dose. In outline:
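RD cells (1*10^5/mL) cultured 4 days at 37 °C with 10 compound concentrations from 3-fold dilution of a 400 μM pretreatment solution, final being 0.5 times that. Viability by CellTiter-Glo luminescence versus cell control; TD50 from S-curve fit; SI=TD50/IC50.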
(In general: In ATP-based viability assays light output follows the ATP content of the culture.)

T1 sequence (P42345 1360-2549 limits assumed): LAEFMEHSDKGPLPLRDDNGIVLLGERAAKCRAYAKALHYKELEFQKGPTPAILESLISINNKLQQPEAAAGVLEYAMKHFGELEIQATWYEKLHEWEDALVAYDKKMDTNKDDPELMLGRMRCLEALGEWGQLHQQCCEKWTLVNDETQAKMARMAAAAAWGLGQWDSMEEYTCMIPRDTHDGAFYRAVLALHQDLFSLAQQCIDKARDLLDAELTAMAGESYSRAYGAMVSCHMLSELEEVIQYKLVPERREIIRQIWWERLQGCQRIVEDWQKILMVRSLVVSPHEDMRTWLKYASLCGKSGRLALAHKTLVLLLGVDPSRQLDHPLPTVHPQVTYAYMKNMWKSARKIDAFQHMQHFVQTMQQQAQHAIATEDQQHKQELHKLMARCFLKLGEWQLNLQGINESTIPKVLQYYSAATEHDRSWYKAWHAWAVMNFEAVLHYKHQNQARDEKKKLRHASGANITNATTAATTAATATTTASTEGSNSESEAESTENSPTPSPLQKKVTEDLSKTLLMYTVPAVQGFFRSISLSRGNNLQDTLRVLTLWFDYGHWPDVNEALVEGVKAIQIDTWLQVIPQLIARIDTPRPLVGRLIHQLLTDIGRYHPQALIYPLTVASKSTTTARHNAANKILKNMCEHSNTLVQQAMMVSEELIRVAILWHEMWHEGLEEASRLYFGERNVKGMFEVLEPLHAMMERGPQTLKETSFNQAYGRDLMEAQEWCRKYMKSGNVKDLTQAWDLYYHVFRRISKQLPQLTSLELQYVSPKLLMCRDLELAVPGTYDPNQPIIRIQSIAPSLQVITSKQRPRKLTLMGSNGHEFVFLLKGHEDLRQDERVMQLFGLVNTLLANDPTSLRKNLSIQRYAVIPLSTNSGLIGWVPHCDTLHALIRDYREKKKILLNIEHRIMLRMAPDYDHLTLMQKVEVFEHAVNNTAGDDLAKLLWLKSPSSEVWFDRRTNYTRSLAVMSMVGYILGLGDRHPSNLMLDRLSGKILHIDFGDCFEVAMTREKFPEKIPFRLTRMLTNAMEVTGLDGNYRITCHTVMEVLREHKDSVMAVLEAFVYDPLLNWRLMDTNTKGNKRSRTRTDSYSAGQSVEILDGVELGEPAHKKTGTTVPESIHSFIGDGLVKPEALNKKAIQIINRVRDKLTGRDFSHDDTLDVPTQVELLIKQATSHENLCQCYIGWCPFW

Regarding `CC(=O)/C=C/c1cnc2ccc(-c3ccc(C)nc3)cc2c1Nc1cccc(C(F)(F)F)c1` [HTL-2-38, (E)-6-[3-(6-methyl)pyridyl]-4-[3-(trifluoromethyl)phenyl]aminoquinoline-3-butenone], in data set [1], the “inhibitory activity on mTOR kinase, in words” value (“inhibitory activity” below) is given as “weak inhibitory activity” and the IC50 (usually the concentration needed to halve the response being measured) worked out at 1010 nM. For the same compound, the TD50 in data set [2] amounted to 8.71 ± 1.53 µM.
For `NC(=O)/C=C/c1ccc2ncc3oc(=O)n(-c4cccc(C(F)(F)F)c4)c3c2c1` [HTL-6-30, (E)-8-(2-carbamoyl-vinyl)-1-[3-(trifluoromethyl)phenyl]oxazolo[5,4-c]quinolin-2(1H)-one], in data set [1], the “inhibitory activity” value is given as “better inhibitory activity” and the midpoint of inhibition, the IC50, lay at 47.6 nM. This compound also came in with a TD50 in data set [2] of 7 ± 0.09 µM.
For `Nc1cccc(Nc2ccc3ncc4ccc(=O)n(-c5cccc(C(F)(F)F)c5)c4c3c2)c1` [HTL-6-11, 9-(3-aminophenyl)imino-2-oxo-1-[3-(trifluoromethyl)phenyl]-1,2-dihydrobenzo[h][1,6]naphthyridine], in data set [1], the “inhibitory activity” value is reported as “moderate inhibitory activity” and the IC50 worked out at 255 nM. Also, the TD50 in data set [2] stood at 7.58 ± 1.24 µM.
Consider `CC(C)(C)OC(=O)Nc1ccc(-c2ccc3ncc4ccc(=O)n(-c5cccc(C(F)(F)F)c5)c4c3c2)cn1` [HTL-7-21, 9-[3-(6-tert-butoxycarbonylamino)pyridyl]-2-oxo-1-[3-(trifluoromethyl)phenyl]-1,2-dihydrobenzo[h][1,6]naphthyridine], for which the IC50 in data set [1] stood at 11.9 nM. For the same compound, the TD50 in data set [2] turned out to be 0.69 ± 0.50 µM.
In the case of `O=c1ccc2cnc3ccc(-c4ccc5ncccc5c4)cc3c2n1-c1cccc(C(F)(F)F)c1` [HTL-6-47, 9-(6-quinolyl)-2-oxo-1-[3-(trifluoromethyl)phenyl]-1,2-dihydrobenzo[h][1,6]naphthyridine], in data set [1], the “inhibitory activity” value is given as “excellent inhibitory activity” and the IC50 stood at 6.17 nM. Moreover, the TD50 in data set [2] was 0.03 ± 0.02 µM.
Taken in the same sequence, the figures for `COc1ncc(-c2ccc3ncc4ccc(=O)n(-c5cccc(C(F)(F)F)c5)c4c3c2)cn1` [HTL-7-06, 9-[5-(2-methoxy)pyrimidyl]-2-oxo-1-[3-(trifluoromethyl)phenyl]-1,2-dihydrobenzo[h][1,6]naphthyridine] were “excellent inhibitory activity”, 4.82 nM and 0.17 ± 0.06 µM.
Compound `CCCCC(=O)Nc1ccc(-c2ccc3ncc4ccc(=O)n(-c5cccc(C(F)(F)F)c5)c4c3c2)cn1` [HTL-7-08, 9-[3-(6-valerylamino)pyridyl]-2-oxo-1-[3-(trifluoromethyl)phenyl]-1,2-dihydrobenzo[h][1,6]naphthyridine] displayed a 50% inhibitory concentration (IC50) in data set [1] of 76.6 nM. For the same compound, the TD50 in data set [2] was found to be 0.70 ± 0.48 µM.

Values taken from patent US20220220106A1, “QUINOLINE COMPOUNDS AND PHARMACEUTICAL COMPOSITIONS AND USES THEREOF” (Academy of Military Medical Sciences, priority 2019, published 2022).
